Values of other authors in patent US20230228766A1, “SERUM BIOMARKERS FOR PREDICTING AND PREVENTING HEMORRHAGIC STROKE” (Texas Tech University System, priority 2020, published 2023).

Conditions: free PRG in blood

half-life of free, active form in blood: 5 to 10 min
Compound: CC(=O)[C@H]1CC[C@H]2[C@@H]3CCC4=CC(=O)CC[C@]4(C)[C@H]3CC[C@]12C [PRG, progesterone]
